Measured values published in patent US20260199297A1, “FERROPTOSIS INDUCERS TO TREAT CANCER” (The University of Toledo, priority 2022, published 2026).
Read-outs that look alike come from different tables or passages of the source.

What was measured:
[1] = tested on: NCI-H522 cells; assay: Cytotoxicity (methylene blue cell viability), NCI-H522; format: cell-based, human
Description: (§1) Having synthesized the CETZOLE analogs, their cytotoxic activity was evaluated. […] NCI-H522 RV-GFP is the corresponding control with RV-GFP tag, but without SLC7A11 overexpression. […] The cytotoxicity screening was conducted as described previously.
(§2) Cell lines were cultured in a humidified atmosphere containing 10% CO2 in Dulbecco's modified Eagle's medium (Mediatech, Inc) supplemented with 10% fetal bovine serum (Atlanta Biologicals). Cell types used MEFs, HT1080 (human fibrosarcoma cells), NARF2 (osteosarcoma), WI-38 (human embryonic lung fibroblast), MDA MB 231 (breast cancer), HCT-116 (human colon), and NCI-H522 (Non-Small Cell Lung Cancer) cell lines. To determine viability throughout these examples, 5,000 cells were plated per well of a 96-well plate and drugs were added 1 day later. Cells were stained 1 to 3 days later with a saturated solution of methylene blue in 50% ethanol. Plates were rinsed and retained dye was quantified by spectrophotometry. Absorbance was normalized to DMSO and given as 1 or 100% for cell viability. Results are representative of at least two independent experiments. Statistical significance was assessed using the Student's t test. All commercially available chemicals were obtained from Cayman Chemicals unless otherwise noted.

[2] = tested on: NCI-H522 GFP-SLC7A11 #8 cells; assay: Cytotoxicity (methylene blue cell viability), NCI-H522 clone overexpressing GFP-SLC7A11; format: cell-based, human
Description: as §1, §2

[3] = tested on: HT-1080 cells; assay: Cytotoxicity (methylene blue cell viability), HT-1080; format: cell-based, human
Description: as §1, §2

[4] = tested on: NARF2 cells; assay: Cytotoxicity (methylene blue cell viability), NARF2; format: cell-based, human; settings: read-out: Half maximal inhibitory concentration (IC50), NARF2
Description: as §1, §2

[5] = tested on: MDA-MB-231 cells; assay: Cytotoxicity (methylene blue cell viability), MDA-MB-231; format: cell-based
Description: as §1, §2

[6] = tested on: WI38 cells; assay: Cytotoxicity on normal cell line WI38; format: cell-based, human
Description: (§3) To determine cytotoxicity at a therapeutically more relevant concentration, cells were treated at a single concentration of […] (FIG. 12).
as §2

[7] = tested on: MEFs (Mouse Embryonic Fibroblasts); assay: Cytotoxicity on normal cell line MEFs; format: cell-based; settings: read-out: Half maximal inhibitory concentration (IC50), Normal Cell Line Mefs
Description: as §3, §2

[8] = tested on: NCI-H522 cells; assay: Flow cytometry BODIPY-C11 lipid ROS measurement; format: cell-based, human; settings: for speed of cell death (area under graph): NCI-H522; for lipid peroxidation compared to DMSO: NCI-H522, BODIPY-C11, 3 hours
Description: The total cell counts are represented by the area under the graph.
NCI-H522 cells were seeded at 1.5×10^5 cells per 9-cm plate. The next media was replaced with fresh media before treated with drugs along with BODIPY581/591-C11 dye (0.5 μM) (Thermo Fisher). […], and resuspended in 2% FBS containing 1×PBS. Cells were analyzed in FITC channel using a BD LSR Fortessa FAC Scanner. Twenty thousand events per condition were analyzed from three independent samples. The experiments were performed twice, each time with triplicate samples (n=6). Collected data were processed with FlowJo v10 software. Lipid ROS measurement in TR9-7 or NARF2 cells was performed similarly at the indicated conditions as mentioned in the respective figure legends. Where appropriate, dead cells were excluded by gating. When gates were applied, they were identical across samples within an experiment.

[9] = tested on: protein bands between 25 kD to 38 kD; assay: Competitive binding assay against probe PPd (in-gel fluorescence); set-up: competition of PPd-labelled protein bands, dose-dependent: dose or concentration left out as unconfirmed; settings: for competition of PPd-labelled protein bands by known ferroptosis inducers: 20 μM concentration, bands 25 kD to 38 kD
[10] = tested on: NCI-H522 cells; format: cell-based; settings: human, 3 days
Source text: FIGS. 10A-10C: Results of live cell imaging.
FIG. 16: Evaluation of ferroptosis-inducing character of CETZOLE probes. A three-day ferroptosis rescue assay of NCI-H522 cells treated with DMSO, 1, RSL3, and CETZOLE analogs, and liproxstatin-1 co-treatment, showing significant ferroptosis inducing probes.
The live cell montage images in FIG. 10A show notable ferroptosis-related morphological changes, such as membrane breakage and floating cell debris in the medium. The NCI-H522 cell viability improved overall when cells were co-treated with the radical scavenger liproxstatin-1 (FIG. 10C). […] To confirm this, flow-cytometry was performed to quantify lipid peroxidation using redox-active BODIPY-C11 (FIGS. 11A-11E).
Overall, CETZOLE probes do induce radical-mediated cell death and are therefore indeed ferroptotic agents.
as §2, with “noted. Compound CETZOLE 1 and the analogs were synthesized as highlighted.” for “noted.”

[11] = tested on: NCI-H522 RV-GFP cells; assay: Cytotoxicity (methylene blue cell viability), NCI-H522 RV-GFP control clone; format: cell-based, human; settings: Table 1, control clone with RV-GFP tag, read-out: Half maximal inhibitory concentration (IC50), NCI-H522 Rv-GFP
Description: as §1, §2

[12] = tested on: NCI-H522 and HT-1080 cancer cell lines, WI38 and MEFs normal cell lines; assay: Selective cytotoxicity assay at a single concentration; format: cell-based; set-up: dose or concentration left out as unconfirmed; settings: NCI-H522, HT-1080, WI38, MEFs
Description: Overall, WI38 cells were the most tolerant to the treatment, whereas MEF cells were partially tolerant and relatively less sensitive than both NCI-H522 and HT-1080 cells. To determine cytotoxicity at a therapeutically more relevant concentration, cells were treated at a single concentration of […] (FIG. 12).
as §2, with “noted. Compound CETZOLE 1 and the analogs were synthesized as highlighted.” for “noted.”

[13] = tested on: 60 human cancer cell lines; assay: NCI 60 human cancer cell line assay, single dose; format: cell-based; settings: single dose of 10 μM, 60 cell lines
Description: The cell lines used in this assay belonged to leukemia, non-small-cell lung cancer, colon cancer, CNS cancer, melanoma, ovarian cancer, renal cancer, prostate cancer, and breast cancer. The compounds were first tested at a single dose of 10 μM.

[14] = tested on: NCI-H522, NCI-H522 GFP-SLC7A11 #8, NCI-H522 RV-GFP, HT-1080, NARF2 and MDA-MB 231 cell lines; assay: Cytotoxicity screening across the tested cell lines; format: cell-based; settings: summary over all tested cell lines; read-out: IC50 values against the tested cell lines
Description: as §1, §2

C#Cc1nc(C2=C(C)C(O)CC2)cs1 (racemic) [CETZOLE 1, 3-(2-Ethynylthiazol-4-yl)-2-methylcyclopent-2-en-1-ol, reference compound] showed an IC50 ([1]; Homo sapiens, NCI-H522, read-out: Half maximal inhibitory concentration (IC50), Cancer Cell Line NCI-H522) of 2500 ± 320 nM, an IC50 ([1]; Homo sapiens, NCI-H522, read-out: Half maximal inhibitory concentration (IC50), NCI-H522) of 2560 ± 930 nM and an IC50 ([1]; Homo sapiens, NCI-H522, read-out: IC50, NCI-H522) of 2500 ± 320 nM. For the same molecule, the IC50 ([2]; Homo sapiens, NCI-H522, read-out: Half maximal inhibitory concentration (IC50), NCI-H522 GFP-SCL7A11 #8) was 10300 ± 3600 nM, the IC50 ([3]; Homo sapiens, HT-1080, read-out: Half maximal inhibitory concentration (IC50), Cancer Cell Line HT1080) was 3070 ± 1300 nM and the IC50 ([3]; Homo sapiens, HT-1080, read-out: Half maximal inhibitory concentration (IC50), HT-1080) was 3070 ± 1300 nM. The IC50 ([3]; Homo sapiens, HT-1080, read-out: IC50, HT-1080) was 960 ± 110 nM, the IC50 ([4]; Homo sapiens) was 14900 ± 1300 nM and the IC50 ([5]; Homo sapiens, MDA-MB-231, read-out: Half maximal inhibitory concentration (IC50), MDA-MB-231) was 6280 ± 730 nM. For the same molecule, the IC50 ([5]; Homo sapiens, MDA-MB-231, read-out: IC50, MDA-MB-231) was 3200 ± 200 nM, the IC50 ([6]; Homo sapiens, WI-38, read-out: Half maximal inhibitory concentration (IC50), Normal Cell Line WI38) was 2510 ± 40 nM and the IC50 ([7]; Mus musculus, Fibroblast) was 2410 ± 980 nM. For the same molecule, the “speed of cell death (area under graph)” value [8] was “induced slower cell death”, the “lipid peroxidation compared to DMSO” value [8] was “induced lipid peroxidation” and the “competition of PPd-labelled protein bands by known ferroptosis inducers” value [9] was “compete out the same protein bands”. For the same molecule, the “competition of PPd-labelled protein bands, dose-dependent” value ([9]; three bands 25 kD to 38 kD) was “completely competed out”.
C#CCCC(=O)Nc1ccc(C(=O)c2ccc(NC(=O)CO/N=C3\CC(c4csc(C#C)n4)=C(C)C3O)cc2)cc1 (stereo not drawn) [PPe, (E)-N-(4-(4-(2-(((4-(2-Ethynylthiazol-4-yl)-2-hydroxy-3-methylcyclopent-3-en-1-ylidene)amino)oxy)acetamido)benzoyl)phenyl)pent-4-ynamide] gave an IC50 ([1]; Homo sapiens, NCI-H522, Table 3, probes and negative controls, read-out: IC50, NCI-H522) of 2600 ± 110 nM, an IC50 ([3]; Homo sapiens, HT-1080, Table 3, probes and negative controls, read-out: IC50, HT-1080) of 1200 ± 10 nM and an IC50 ([5]; Homo sapiens, MDA-MB-231, Table 3, probes and negative controls, read-out: IC50, MDA-MB-231) of 1330 ± 20 nM. For the same molecule, the “cell viability on liproxstatin-1 co-treatment (rescue)” value [10] was 45%.
Work on C#Cc1nc(C2=C(C)/C(=N/OCc3ccccc3)CC2)cs1 [compound 23, (E)-3-(2-Ethynylthiazol-4-yl)-2-methylcyclopent-2-en-1-one O-benzyl oxime] yielded an IC50 ([1]; Homo sapiens, NCI-H522, Table 2, read-out: Half maximal inhibitory concentration (IC50), Cancer Cell Line NCI-H522) of 1360 ± 110 nM, an IC50 ([1]; Homo sapiens, Table 1, NCI-H522 cancer cell line, read-out: Half maximal inhibitory concentration (IC50), NCI-H522) of 1360 ± 110 nM and an IC50 ([2]; Homo sapiens, Table 1, NCI-H522 clone overexpressing GFP-tagged SLC7A11, read-out: Half maximal inhibitory concentration (IC50), NCI-H522 GFP-SCL7A11 #8) of 2410 ± 1160 nM. The IC50 ([11]; Homo sapiens, NCI-H522) was 2540 ± 440 nM, the IC50 ([3]; Homo sapiens, HT-1080, Table 2, read-out: Half maximal inhibitory concentration (IC50), Cancer Cell Line HT1080) was 810 ± 140 nM and the IC50 ([3]; Homo sapiens, Table 1, HT-1080 fibrosarcoma cell line, read-out: Half maximal inhibitory concentration (IC50), HT-1080) was 810 ± 140 nM. For the same molecule, the IC50 ([4]; Homo sapiens, Table 1, NARF2 osteosarcoma cells) was 19300 ± 5900 nM, the IC50 ([5]; Homo sapiens, Table 1, MDA-MB-231 breast cancer cell line, read-out: Half maximal inhibitory concentration (IC50), MDA-MB-231) was 4170 ± 390 nM and the IC50 ([6]; Homo sapiens, WI-38, Table 2, lung tissue fibroblast, read-out: Half maximal inhibitory concentration (IC50), Normal Cell Line WI38) was 2510 ± 810 nM. For the same molecule, the IC50 ([7]; Fibroblast, Table 2, Mouse Embryonic Fibroblasts) was 1090 ± 460 nM, the “cell viability on liproxstatin-1 co-treatment (rescue)” value [10] was 85% and the “speed of cell death (area under graph)” value [8] was “induced slower cell death”. For the same molecule, the “lipid peroxidation compared to DMSO” value [8] was “induced lipid peroxidation”, the “cell death at a single concentration” value [12] was “did not induce cell death” and the mean percentage growth [13] was 27.24.
COC(=O)c1ccc([C@@H]2c3[nH]c4ccccc4c3C[C@@H](C(=O)OC)N2C(=O)CCl)cc1 [RSL3, reference compound] was tested, and the IC50 ([1]; Table 1, NCI-H522 cancer cell line, read-out: Half maximal inhibitory concentration (IC50), NCI-H522) was 1100 ± 890 nM, the IC50 ([1]; Table 2, read-out: Half maximal inhibitory concentration (IC50), Cancer Cell Line NCI-H522) was 1100 ± 890 nM and the IC50 ([2]; Table 1, NCI-H522 clone overexpressing GFP-tagged SLC7A11, read-out: Half maximal inhibitory concentration (IC50), NCI-H522 GFP-SCL7A11 #8) was 2840 ± 900 nM. It also gave an IC50 [11] of 310 ± 40 nM, an IC50 ([3]; Table 1, HT-1080 fibrosarcoma cell line, read-out: Half maximal inhibitory concentration (IC50), HT-1080) of 140 ± 80 nM and an IC50 ([3]; Table 2, read-out: Half maximal inhibitory concentration (IC50), Cancer Cell Line HT1080) of 140 ± 100 nM. The IC50 ([4]; Table 1, NARF2 osteosarcoma cells) was 2460 ± 760 nM, the IC50 ([5]; Table 1, MDA-MB-231 breast cancer cell line, read-out: Half maximal inhibitory concentration (IC50), MDA-MB-231) was 220 ± 20 nM and the IC50 ([6]; Table 2, lung tissue fibroblast, read-out: Half maximal inhibitory concentration (IC50), Normal Cell Line WI38) was 50 ± 10 nM. For the same molecule, the IC50 ([7]; Table 2, Mouse Embryonic Fibroblasts) was 40 ± 20 nM, the IC50 [14] was 140 to 2840 nM and the “cell death at a single concentration” value [12] was “killed all cell lines indiscriminately”. The “competition of PPd-labelled protein bands by known ferroptosis inducers” value [9] was “compete out the same protein bands”.
